Assay results as given in US6603023B2 (priority 1996, dated 2003).
Where two headings read alike, the source gives them in different places. Marks after values point to notes of the source that are not given here.

Experiments:
[1] = test system: MDR human mammary adenocarcinoma MCF-7/Adr xenograft; test: in vivo
Experimental: DMSO was used as a vehicle for epothilones. Each mouse received ≦40 μL DMSO in all experiments.
Athymic nude mice (nu/nu) were used for MX-1 and MCF-7/Adr human mammary carcinoma xenografts. Mice were obtained from Taconic Laboratory Animals and Service (Germantown, N.Y.: outbred, Swiss background).

[2] = test system: CCRF-CEM/Taxol®; test: CCRF-CEM/Taxol xenograft, i.v. 6 h infusion; format: in vivo, nude mice; details: CCRF/Taxol Leukemia; dEpoB 30 mg/kg Q2D x 6, Taxol 15 mg/kg Q2D x 6
Source text: Treatment on days 6, 8, 10, 12 and 14.
Treatment on days 19, 21, 23, 25, 27, 39, 41, 43, 45 and 47.

[3] = test system: Human Lymphoblastic Leukemia CCRF-CEM; test: CCRF-CEM xenograft in nude mice, i.v. 6 h infusion; format: in vivo; details: for Average Body Weight, Day 21: initial weight
[4] = test system: PC-3 Human Prostate Carcinoma; test: PC-3 xenograft; format: in vivo, nude mice; details: for Average Body Weight, Day 5: initial weight
[5] = test system: human ovarian adenocarcinoma SK-OV-3
[6] = test system: human ovarian UL3-C tumor; test: UL3-C ovarian tumor xenograft
[7] = Hematology and blood chemistry toxicity in MX-1 bearing mice; details: day 30; dEpoB 25 mg/kg i.p. day 7-15 then 35 mg/kg day 17-25; Taxol 5 then 6 mg/kg; MX-1 bearing nude mice
[8] = MCF-7/Adr Breast, dEpoB 30 mg/kg Q2D x 5, Taxol 24 mg/kg Q2D x 5
[9] = Taxol 24 mg/kg, 6 hr i.v. infusion Q2D x 5 (day 8-16)
[10] = dEpo B 30, Taxol 15 mg/kg, 6 hr i.v. infusion Q2D x 5 (day 8-16)
[11] = high doses: Taxol 12, Adriamycin 3, Camptothecin 3.0 mg/kg i.p. day 8,10,12,14,16
[12] = male, athymic nude (nu/nu), outbred, Swiss background, mouse, in vivo
[13] = Dose DesoxyepoB 40, Taxol 20, i.v. infusion 6 hr on day 21,23,25,27
[14] = Table 26, Dose Q2D x 4: DesoxyepoB 40, Taxol 20
[15] = 6 hr i.v. infusion: dEpoB 40, Taxol 24 mg/kg
[16] = PC-3 Prostate, dEpoB 40 mg/kg Q2D x 3, Taxol 15 mg/kg Q2D x 3
[17] = dEpoB 30 mg/kg 18 hr i.v. infusion, Taxol 16 mg/kg 6 hr infusion, VBL 2 and VP-16 25 mg/kg i.v. inj
[18] = SK-OV-3 Ovary, dEpoB 30 mg/kg Q2D x 6, Taxol 15 mg/kg Q2D x 6
[19] = UL3-C Ovary, dEpoB 30 mg/kg Q2D x 5, Taxol 15 mg/kg Q2D x 5
[20] = dEpoB 30, Taxol 20 mg/kg, i.v. infusions on day 19,21,23,25,27

CC(=O)O[C@H]1C(=O)[C@@]2(C)[C@H]([C@H](OC(=O)c3ccccc3)[C@]3(O)C[C@H](OC(=O)[C@H](O)[C@@H](NC(=O)c4ccccc4)c4ccccc4)C(C)=C1C3(C)C)[C@]1(OC(C)=O)CO[C@@H]1C[C@@H]2O [Taxol ®, paclitaxel]
Lowest Average Tumor Size (T/C) [1, 8]: 0.71 T/C | Tumor Disappearance [1, 8]: 0 | tumor size reduction ([1]; Taxol 6 mg/kg i.p. Q2Dx5, day 17): 100% | Average Body Weight (change), Day 14 [1, 9]: -4.8 g | Average Body Weight (change), Day 16 [1, 9]: -5.3 g | Average Body Weight (change), Day 18 [1, 9]: -6.0 g | Average Tumor Size (T/C), Day 14 [1, 9]: 0.73 T/C | Average Tumor Size (T/C), Day 16 [1, 9]: 0.71* T/C | Average Tumor Size (T/C), Day 18 [1, 9]: 0.73* T/C | Average Tumor Size (T/C), Day 14 [1, 10]: 0.81 T/C | Average Tumor Size (T/C), Day 16 [1, 10]: 0.89 T/C | Average Tumor Size (T/C), Day 18 [1, 10]: 0.76 T/C | Average Tumor Volume (T/C), Day 11 [1, 11]: 0.50 T/C | Average Tumor Volume (T/C), Day 13 [1, 11]: 0.51 T/C | Average Tumor Volume (T/C), Day 15 [1, 11]: 0.32 T/C | Average Tumor Volume (T/C), Day 17 [1, 11]: 0.40 T/C | Toxicity Death [1, 12]: 0/4 | lethality [1, 12]: 3/7 | tumor growth suppression ([1]; paclitaxel 5 mg/kg (so in the source)): slight growth suppression | Lowest Average Tumor Size (T/C) [2]: 1.09 T/C | Tumor Disappearance [2]: 0 | Tumor Disappearance ([3]; CCRF/CEM Leukemia, dEpoB 30 mg/kg Q2D x 5, Taxol 15 mg/kg Q2D x 5): 2/2 | Average Body Weight Changes, Day 23 [3, 13]: -0.1 g | Average Body Weight Changes, Day 25 [3, 13]: -1.9 g | Average Body Weight Changes, Day 27 [3, 13]: -2.9 g | Average Body Weight Changes, Day 29 [3, 13]: -3.0 g | Average Body Weight Changes, Day 31 [3, 13]: -3.6 g | Average Body Weight Changes, Day 33 [3, 13]: -2.6 g | Average Body Weight Changes, Day 35 [3, 13]: -0.5 g | Average Body Weight Changes, Day 37 [3, 13]: +1.2 g | Average Body Weight Changes, Day 39 [3, 13]: +1.3 g | Average Body Weight Changes, Day 41 [3, 13]: +2.1 g | Average Tumor Size (T/C), Day 21 [3, 13]: 1.17 T/C | Average Tumor Size (T/C), Day 23 [3, 13]: 0.78 T/C | Average Tumor Size (T/C), Day 25 [3, 13]: 0.44 T/C | Average Tumor Size (T/C), Day 27 [3, 13]: 0.11 T/C | Average Tumor Size (T/C), Day 29 [3, 13]: 0 T/C | Average Tumor Size (T/C), Day 31 [3, 13]: 0 T/C | Average Tumor Size (T/C), Day 33 [3, 13]: 0 T/C | Average Tumor Size (T/C), Day 35 [3, 13]: 0 T/C | Proportion of Tumor Disappearance (n/total), Day 21 [3, 13]: 0/4 | Proportion of Tumor Disappearance (n/total), Day 23 [3, 13]: 0/4 | Proportion of Tumor Disappearance (n/total), Day 25 [3, 13]: 0/4 | Proportion of Tumor Disappearance (n/total), Day 27 [3, 13]: 1/4 | Proportion of Tumor Disappearance (n/total), Day 29 [3, 13]: 4/4 | Proportion of Tumor Disappearance (n/total), Day 31 [3, 13]: 4/4 | Proportion of Tumor Disappearance (n/total), Day 33 [3, 13]: 4/4 | Proportion of Tumor Disappearance (n/total), Day 35 [3, 13]: 1/4 | Proportion of Tumor Disappearance (n/total), Day 37 [3, 13]: 0/4 | Proportion of Tumor Disappearance (n/total), Day 39 [3, 13]: 0/4 | Proportion of Tumor Disappearance (n/total), Day 41 [3, 13]: 0.4 | Average Body Weight Change, Day 23 [3, 14]: -0.1 g | Average Body Weight Change, Day 25 [3, 14]: -1.9 g | Average Body Weight Change, Day 27 [3, 14]: -2.9 g | Average Body Weight Change, Day 29 [3, 14]: -3.0 g | Average Body Weight Change, Day 31 [3, 14]: -3.6 g | Average Tumor Size (T/C), Day 23 [3, 14]: 0.78 T/C | Average Tumor Size (T/C), Day 25 [3, 14]: 0.44 T/C | Average Tumor Size (T/C), Day 27 [3, 14]: 0.11 T/C | Average Tumor Size (T/C), Day 29 [3, 14]: 0 T/C | Average Tumor Size (T/C), Day 31 [3, 14]: 0 T/C | Tumor Disappearance [3, 14]: 4/4 | Average Body Weight, Day 21 [3, 14]: 29.0 g | Average Body Weight, Day 21 [3, 13]: 29.0 g | Average Body Weight (change), Day 9 [4, 15]: -2.2 g | Average Body Weight (change), Day 11 [4, 15]: -2.8 g | Average Body Weight (change), Day 13 [4, 15]: -0.8 g | Average Tumor Size (TC), Day 9 [4, 15]: 0.18 TC | Average Tumor Size (TC), Day 11 [4, 15]: 0.05 TC | Average Tumor Size (TC), Day 13 [4, 15]: 0.06 TC | Tumor Disappearance [4, 15]: 2/4 | Lowest Average Tumor Size (T/C) [4, 16]: 0.02 T/C | Tumor Disappearance [4, 16]: 0 | Average Body Weight (change), Day 9 [4, 17]: -1.1 g | Average Body Weight (change), Day 11 [4, 17]: -0.9 g | Average Body Weight (change), Day 13 [4, 17]: +0.4 g | Average Tumor Size (TC), Day 9 [4, 17]: 0.34 TC | Average Tumor Size (TC), Day 11 [4, 17]: 0.09 TC | Average Tumor Size (TC), Day 13 [4, 17]: 0.02 TC | Tumor Disappearance [4, 17]: 0/4 | Average Body Weight, Day 5 [4, 15]: 28.8 g | Average Body Weight, Day 5 [4, 17]: 26.6 g | Tumor Disapp. ([5]; 5 mg/kg i.p. Q2Dx5 from day 9): 0/6 | Average Body Weight Change ([5]; 5 mg/kg i.p. Q2Dx5 from day 9, day 13): -1.1 g | Average Body Weight Change ([5]; 5 mg/kg i.p. Q2Dx5 from day 9, day 15): -2.0 g | Average Body Weight Change ([5]; 5 mg/kg i.p. Q2Dx5 from day 9, day 17): -1.0 g | Average Body Weight Change ([5]; 5 mg/kg i.p. Q2Dx5 from day 9, day 19): -0.2 g | Lowest Average Tumor Size (T/C) [5, 18]: 0.02 T/C | Tumor Disappearance [5, 18]: 1/4 | Tumor Disapp. ([5]; Taxol 15 mg/kg i.v. Q2Dx5 from day 9): 0/6 | Average Body Weight Change ([5]; Taxol 15 mg/kg i.v. Q2Dx5 from day 9, day 13): -0.6 g | Average Body Weight Change ([5]; Taxol 15 mg/kg i.v. Q2Dx5 from day 9, day 15): -0.8 g | Average Body Weight Change ([5]; Taxol 15 mg/kg i.v. Q2Dx5 from day 9, day 17): -0.8 g | Average Body Weight Change ([5]; Taxol 15 mg/kg i.v. Q2Dx5 from day 9, day 19): -0.9 g | Toxicity Death ([5]; nude, mouse, in vivo): 0/6 | Lowest Average Tumor Size (T/C) [6, 19]: 0.04 T/C | Tumor Disappearance [6, 19]: 0 | Average Body Weight (change), Day 33 [6, 20]: -2.7 g | Average Body Weight Change, Day 27 [6, 20]: -2.9 g | Average Body Weight Change, Day 29 [6, 20]: -3.3 g | Average Body Weight Change, Day 31 [6, 20]: -2.4 g | Average Tumor Size (T/C), Day 27 [6, 20]: 0.10 T/C | Average Tumor Size (T/C), Day 29 [6, 20]: 0.08 T/C | Average Tumor Size (T/C), Day 31 [6, 20]: 0.03 T/C | Average Tumor Size (T/C), Day 33 [6, 20]: 0.04 T/C | Average Body Weight, Day 19 ([6]; initial weight, dEpoB 30, Taxol 20 mg/kg, i.v. infusions on day 19,21,23,25,27): 31.3 g | GOT [7]: 438 U/L | GPT [7]: 79 (n = 5) U/L | WBC Lymph [7]: 48% | WBC Neutrophils [7]: 51% | WBC Total [7]: 10.9 10^3/mm^3
